According to ChEMBL document CHEMBL5465560, “Selectivity Literature for EUbOPEN Chemogenomic Library” (2024):
One block for each molecule: values may come before it.

Experiments:
[1] = molecular target: T1, Tyrosine-protein kinase Tec (Homo sapiens) (UniProt P42680); assay: Selectivity interaction (Ambit KINOMEscan and KiNATiv profiling in Jurkat cells) EUB0000090b TEC; assay type: cell-based; conditions: at 1 µM
T1 sequence (whole entry): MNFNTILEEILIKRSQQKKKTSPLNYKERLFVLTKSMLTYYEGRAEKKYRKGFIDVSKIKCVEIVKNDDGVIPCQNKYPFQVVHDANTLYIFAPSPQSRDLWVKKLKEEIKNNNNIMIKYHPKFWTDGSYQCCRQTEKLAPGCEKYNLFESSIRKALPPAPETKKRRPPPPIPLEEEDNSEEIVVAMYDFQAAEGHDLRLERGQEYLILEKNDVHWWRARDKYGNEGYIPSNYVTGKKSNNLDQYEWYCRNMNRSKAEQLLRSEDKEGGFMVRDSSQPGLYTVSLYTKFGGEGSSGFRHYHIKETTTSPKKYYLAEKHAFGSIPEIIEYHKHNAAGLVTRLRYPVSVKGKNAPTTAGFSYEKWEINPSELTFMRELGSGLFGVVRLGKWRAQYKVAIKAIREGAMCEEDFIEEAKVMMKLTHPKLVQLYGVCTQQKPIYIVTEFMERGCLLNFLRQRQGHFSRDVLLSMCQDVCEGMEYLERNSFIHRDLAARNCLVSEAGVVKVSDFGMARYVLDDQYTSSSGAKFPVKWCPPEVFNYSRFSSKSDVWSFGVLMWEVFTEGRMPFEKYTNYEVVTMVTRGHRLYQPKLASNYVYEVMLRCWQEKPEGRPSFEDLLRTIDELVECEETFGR

[2] = molecular target: T2, Ephrin type-B receptor 2 (Homo sapiens) (UniProt P29323); assay: Selectivity interaction (Ambit KINOMEscan and KiNATiv profiling in Jurkat cells) EUB0000090b EPHB2; assay type: cell-based; conditions: at 1 µM
T2 sequence (whole entry): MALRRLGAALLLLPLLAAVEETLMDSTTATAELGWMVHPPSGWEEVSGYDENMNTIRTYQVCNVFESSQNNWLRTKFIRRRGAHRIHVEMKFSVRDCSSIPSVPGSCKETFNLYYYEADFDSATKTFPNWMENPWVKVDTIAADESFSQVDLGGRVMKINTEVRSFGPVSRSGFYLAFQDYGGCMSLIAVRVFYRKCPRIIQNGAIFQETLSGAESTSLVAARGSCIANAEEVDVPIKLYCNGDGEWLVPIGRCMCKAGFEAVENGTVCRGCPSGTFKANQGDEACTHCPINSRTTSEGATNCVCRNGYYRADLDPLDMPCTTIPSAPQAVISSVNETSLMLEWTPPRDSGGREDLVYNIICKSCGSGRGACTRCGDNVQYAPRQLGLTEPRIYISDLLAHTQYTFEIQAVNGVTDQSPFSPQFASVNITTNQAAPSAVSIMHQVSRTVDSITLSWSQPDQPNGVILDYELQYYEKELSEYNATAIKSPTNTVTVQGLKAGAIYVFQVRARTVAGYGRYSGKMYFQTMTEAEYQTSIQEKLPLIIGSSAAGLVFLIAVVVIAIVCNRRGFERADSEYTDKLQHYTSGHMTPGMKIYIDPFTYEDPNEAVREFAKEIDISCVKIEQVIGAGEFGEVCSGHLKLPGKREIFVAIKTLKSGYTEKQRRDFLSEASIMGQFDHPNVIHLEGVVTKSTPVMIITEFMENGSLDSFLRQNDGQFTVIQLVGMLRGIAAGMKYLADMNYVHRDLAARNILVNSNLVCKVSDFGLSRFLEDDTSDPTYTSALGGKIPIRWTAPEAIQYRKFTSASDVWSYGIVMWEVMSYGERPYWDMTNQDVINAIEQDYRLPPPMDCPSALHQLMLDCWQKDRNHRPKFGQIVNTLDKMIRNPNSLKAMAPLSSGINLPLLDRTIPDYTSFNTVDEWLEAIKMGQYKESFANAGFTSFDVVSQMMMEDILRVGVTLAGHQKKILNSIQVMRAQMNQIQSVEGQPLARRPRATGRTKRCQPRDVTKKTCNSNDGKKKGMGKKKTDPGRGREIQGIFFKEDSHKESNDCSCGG

[3] = molecular target: DNA (cytosine-5)-methyltransferase 3A (Homo sapiens) (UniProt Q9Y6K1); assay: Selectivity interaction (PWWP, WD40, and Tudor domain panel (DSLS measurements, literature)) EUB0000270b DNMT3A
[4] = molecular target: RAC-alpha serine/threonine-protein kinase (Homo sapiens, UniProt P31749); assay: Selectivity interaction (ProQinase) EUB0000171b AKT1
[5] = molecular target: T3, cAMP-dependent protein kinase catalytic subunit PRKX (Homo sapiens) (UniProt P51817); assay: Selectivity interaction (KinomeScan (DiscoverX)) EUB0000618a PRKX; conditions: at 10 µM
T3 sequence (whole entry): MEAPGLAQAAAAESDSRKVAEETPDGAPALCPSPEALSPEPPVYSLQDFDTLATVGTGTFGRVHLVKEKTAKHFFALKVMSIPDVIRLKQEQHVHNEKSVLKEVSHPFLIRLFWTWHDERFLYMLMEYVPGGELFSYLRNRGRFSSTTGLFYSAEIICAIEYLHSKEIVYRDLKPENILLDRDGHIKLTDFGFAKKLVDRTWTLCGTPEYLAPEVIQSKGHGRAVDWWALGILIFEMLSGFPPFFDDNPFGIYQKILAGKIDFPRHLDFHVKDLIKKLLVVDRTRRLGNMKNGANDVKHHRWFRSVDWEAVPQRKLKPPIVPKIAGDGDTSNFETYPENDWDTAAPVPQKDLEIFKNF

RAC-alpha serine/threonine-protein kinase, sequence (P31749 whole entry): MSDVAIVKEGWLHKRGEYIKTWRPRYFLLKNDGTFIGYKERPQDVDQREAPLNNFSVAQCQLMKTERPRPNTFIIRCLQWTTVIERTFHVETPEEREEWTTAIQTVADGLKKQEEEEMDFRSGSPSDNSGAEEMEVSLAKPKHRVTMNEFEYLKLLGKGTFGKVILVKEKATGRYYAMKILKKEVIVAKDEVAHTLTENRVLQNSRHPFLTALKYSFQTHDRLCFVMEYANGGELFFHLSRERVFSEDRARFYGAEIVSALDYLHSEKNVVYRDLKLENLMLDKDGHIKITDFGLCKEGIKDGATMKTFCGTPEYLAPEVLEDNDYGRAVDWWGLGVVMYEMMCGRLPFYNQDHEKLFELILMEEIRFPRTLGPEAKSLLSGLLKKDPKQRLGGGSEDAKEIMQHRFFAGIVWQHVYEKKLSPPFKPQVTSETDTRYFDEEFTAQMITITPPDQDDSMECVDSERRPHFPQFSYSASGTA
DNA (cytosine-5)-methyltransferase 3A (Homo sapiens), sequence (Q9Y6K1 whole entry, looked up, the tested form may be a part): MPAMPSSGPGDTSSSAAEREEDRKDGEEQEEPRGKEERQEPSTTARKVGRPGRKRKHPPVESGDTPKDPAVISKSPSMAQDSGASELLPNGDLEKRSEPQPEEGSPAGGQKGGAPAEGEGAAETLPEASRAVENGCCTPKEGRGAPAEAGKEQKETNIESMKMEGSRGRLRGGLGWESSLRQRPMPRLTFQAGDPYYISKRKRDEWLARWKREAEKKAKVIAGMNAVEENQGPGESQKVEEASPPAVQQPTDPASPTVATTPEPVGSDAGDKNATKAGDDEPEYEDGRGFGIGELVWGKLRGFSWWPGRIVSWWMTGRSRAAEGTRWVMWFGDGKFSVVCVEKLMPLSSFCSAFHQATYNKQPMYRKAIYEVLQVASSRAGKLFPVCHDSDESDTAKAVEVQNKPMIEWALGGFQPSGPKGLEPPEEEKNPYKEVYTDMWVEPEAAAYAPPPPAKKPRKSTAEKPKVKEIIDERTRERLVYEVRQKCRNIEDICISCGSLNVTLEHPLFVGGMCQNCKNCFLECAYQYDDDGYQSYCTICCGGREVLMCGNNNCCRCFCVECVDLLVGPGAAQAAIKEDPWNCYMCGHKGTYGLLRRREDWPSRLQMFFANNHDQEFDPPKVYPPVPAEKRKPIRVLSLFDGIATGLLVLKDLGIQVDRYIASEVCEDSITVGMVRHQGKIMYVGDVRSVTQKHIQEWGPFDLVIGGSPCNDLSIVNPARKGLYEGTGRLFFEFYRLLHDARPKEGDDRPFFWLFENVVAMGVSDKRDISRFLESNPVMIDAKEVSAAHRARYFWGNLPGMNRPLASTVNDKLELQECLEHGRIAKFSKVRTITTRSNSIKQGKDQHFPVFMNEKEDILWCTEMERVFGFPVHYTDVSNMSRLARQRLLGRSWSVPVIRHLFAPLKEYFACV

SMILES: CN(C)C/C=C/C(=O)Nc1ccc(C(=O)N2CCCC(Nc3ncc(Cl)c(-c4c[nH]c5ccccc45)n3)C2)cc1 (stereo unspecified)
% of control [1]: 99% | % of control [2]: 100%

dTagg [3]: -0.1 K
SMILES: Cc1cc(CN)cc(C)c1-c1ncn(C)c1-c1cncn1C

% of control ([4]; at 1 µM): 84% | % of control ([4]; at 5 µM): 69%
SMILES: C=CC(=O)Nc1cccc(C(=O)Nc2ccc(Nc3cc(-c4[nH]c(SC)nc4C)ccn3)cc2)c1

SMILES: O[C@H]1CC[C@H](Nc2ncc3nc(Nc4c(F)cc(F)cc4F)n([C@H]4CCOC4)c3n2)CC1
% of control [5]: 100%
